Here are results for 1 compound from US20260000698A1 (priority 2022, published 2026).

One series deals with T1, MLL1 Complex (Homo sapiens, UniProt Q03164).
T1 construct: purchased BPS Bioscience
The series is described as follows: Human MTase screening: MLL1 Complex. Format: biochemical. The method, then: (§1) Assay conditions. The human methyltransferase inhibition assays were performed at BPS Bioscience (San Diego, CA, USA). All of the enzymatic reactions were conducted in duplicate at room temperature for 60-960 min in a 50 μL mixture containing proper methyltransferase assay buffer, S-adenosylmethionine (SAM), enzyme, and the test compound. These 50 μL reactions were carried out in wells of a substrate pre-coated plate. First, enzyme and inhibitor were added to assay wells and preincubated for 30 min at room temperature, then SAM was added to start the reaction. Final DMSO concentration was 1% in all reactions.
(§2) After enzymatic reactions, the reaction mixtures were discarded and each of the wells was washed three times with TBST buffer, and slowly shaken with Blocking Buffer for 10 min. Wells were emptied, and 100 μL of diluted primary antibody was added. The plate was then slowly shaken for 60 minutes at room temperature. […] Immediately, the luminescence of the samples was measured in a BioTek Synergy™ 2 (Winooski, VT, USA) microplate reader using Gen5 software.
(§3) Data analysis. […] The luminescence data/alpha counts were analyzed and compared. […] The percent activity in the presence of each compound was calculated according to the following equation: % activity=(C−C0)/(Ce−C0), where C=the luminescence/alpha counts in the presence of the compound.

The target in the next series is T2, G9a (Homo sapiens, UniProt Q96KQ7).
T2 construct: purchased BPS Bioscience
T2 sequence (Q96KQ7 1-1210): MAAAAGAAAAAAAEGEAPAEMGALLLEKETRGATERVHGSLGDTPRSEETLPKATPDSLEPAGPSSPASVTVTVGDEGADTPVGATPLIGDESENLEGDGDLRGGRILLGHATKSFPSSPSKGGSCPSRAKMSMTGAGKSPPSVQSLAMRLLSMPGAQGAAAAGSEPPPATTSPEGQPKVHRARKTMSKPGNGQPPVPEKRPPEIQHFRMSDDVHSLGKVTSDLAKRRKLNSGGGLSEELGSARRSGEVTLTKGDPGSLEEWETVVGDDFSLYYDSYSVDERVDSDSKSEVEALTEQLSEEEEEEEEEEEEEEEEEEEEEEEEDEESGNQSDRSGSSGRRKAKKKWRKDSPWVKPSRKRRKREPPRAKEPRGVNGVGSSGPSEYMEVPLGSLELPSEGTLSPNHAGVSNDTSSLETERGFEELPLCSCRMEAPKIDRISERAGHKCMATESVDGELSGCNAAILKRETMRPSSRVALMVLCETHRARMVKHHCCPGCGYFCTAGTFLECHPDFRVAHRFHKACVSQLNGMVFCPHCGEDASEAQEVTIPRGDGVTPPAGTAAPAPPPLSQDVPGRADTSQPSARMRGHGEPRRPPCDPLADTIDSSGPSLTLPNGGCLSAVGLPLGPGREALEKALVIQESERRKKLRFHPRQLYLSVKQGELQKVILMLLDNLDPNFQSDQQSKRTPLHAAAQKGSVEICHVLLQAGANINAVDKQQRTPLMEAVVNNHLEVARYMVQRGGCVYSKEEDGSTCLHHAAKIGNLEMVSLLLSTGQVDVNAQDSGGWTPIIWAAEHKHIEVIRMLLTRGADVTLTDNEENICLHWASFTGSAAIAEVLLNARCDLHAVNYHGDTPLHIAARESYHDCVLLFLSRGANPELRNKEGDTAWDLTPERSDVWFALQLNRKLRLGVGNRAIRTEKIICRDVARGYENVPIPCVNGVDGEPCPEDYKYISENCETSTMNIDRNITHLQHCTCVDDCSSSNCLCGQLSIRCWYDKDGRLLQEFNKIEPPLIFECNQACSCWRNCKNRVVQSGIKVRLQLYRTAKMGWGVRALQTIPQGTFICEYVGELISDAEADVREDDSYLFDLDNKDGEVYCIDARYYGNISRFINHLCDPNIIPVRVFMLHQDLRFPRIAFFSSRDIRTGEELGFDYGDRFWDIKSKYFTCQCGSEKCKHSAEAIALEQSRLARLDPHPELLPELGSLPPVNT
The series is described as follows: Human MTase screening: G9a. Type of series: biochemical. How it is done:
as §1, §2, §3

Series [1] in a line: Plasma stability assay, human plasma. Format: in vitro ADME. How it is done:
Plasma stability assay. The plasma stability assay was performed in triplicate by incubating each selected compound (1 μmol/L final concentration) in normal mouse (CD-1) or human plasma (Innovative Research; Novi, MI, USA) diluted to 80% with 0.1 mol/L potassium phosphate buffer (pH 7.4) at 37° C. At 0, 1, 3, 6, and 24 h, a 50 μL aliquot of the plasma mixture was taken and quenched with 150 μL of acetonitrile containing 0.1% formic acid. The samples were then vortexed and centrifuged at 15,000 rpm (Eppendorf centrifuge 5424R; Enfield, CT, USA) for 5 min. The supernatants were collected and analyzed by LC-MS/MS to determine the in vitro plasma half-life (t1/2).

Marks after values point to notes of the source that are not given here. A value given as a limit tells only on which side of the number the result lay.

T1 sequence (Q15291 whole entry): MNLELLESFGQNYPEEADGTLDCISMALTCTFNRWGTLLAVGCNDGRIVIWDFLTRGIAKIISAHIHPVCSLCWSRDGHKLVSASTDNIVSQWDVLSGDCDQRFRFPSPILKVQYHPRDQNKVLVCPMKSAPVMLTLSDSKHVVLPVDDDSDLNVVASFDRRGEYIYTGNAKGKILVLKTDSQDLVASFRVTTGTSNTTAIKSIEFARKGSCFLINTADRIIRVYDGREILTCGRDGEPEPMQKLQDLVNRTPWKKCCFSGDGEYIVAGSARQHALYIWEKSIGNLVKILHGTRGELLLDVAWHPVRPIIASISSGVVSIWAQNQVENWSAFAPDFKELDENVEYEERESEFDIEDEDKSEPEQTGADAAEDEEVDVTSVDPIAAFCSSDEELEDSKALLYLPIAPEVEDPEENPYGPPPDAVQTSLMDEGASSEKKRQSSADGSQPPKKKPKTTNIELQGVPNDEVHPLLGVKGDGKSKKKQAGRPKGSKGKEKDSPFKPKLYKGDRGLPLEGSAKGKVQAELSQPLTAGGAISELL
T1 sequence (Q9C005 whole entry, further chain): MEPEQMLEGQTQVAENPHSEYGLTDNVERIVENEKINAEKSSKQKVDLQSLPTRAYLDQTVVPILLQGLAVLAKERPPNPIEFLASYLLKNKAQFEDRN
T1 sequence (Q9UBL3 whole entry, further chain): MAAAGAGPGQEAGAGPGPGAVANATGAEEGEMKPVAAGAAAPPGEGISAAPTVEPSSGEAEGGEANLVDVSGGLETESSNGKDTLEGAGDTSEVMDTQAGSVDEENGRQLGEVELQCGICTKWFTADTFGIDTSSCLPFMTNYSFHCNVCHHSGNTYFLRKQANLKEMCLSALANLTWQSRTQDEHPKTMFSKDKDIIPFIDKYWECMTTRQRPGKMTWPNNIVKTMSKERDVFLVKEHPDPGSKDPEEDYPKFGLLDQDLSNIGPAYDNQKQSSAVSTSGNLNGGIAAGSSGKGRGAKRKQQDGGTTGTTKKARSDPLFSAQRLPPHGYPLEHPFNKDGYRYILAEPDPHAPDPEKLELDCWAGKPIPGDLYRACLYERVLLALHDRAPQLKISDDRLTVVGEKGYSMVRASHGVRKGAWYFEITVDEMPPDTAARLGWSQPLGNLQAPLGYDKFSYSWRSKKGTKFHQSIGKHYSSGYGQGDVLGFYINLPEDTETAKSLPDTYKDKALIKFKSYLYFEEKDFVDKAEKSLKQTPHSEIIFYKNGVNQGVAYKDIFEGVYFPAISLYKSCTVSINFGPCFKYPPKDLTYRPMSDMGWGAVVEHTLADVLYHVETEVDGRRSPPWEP
T1 sequence (Q03164 3745-3969): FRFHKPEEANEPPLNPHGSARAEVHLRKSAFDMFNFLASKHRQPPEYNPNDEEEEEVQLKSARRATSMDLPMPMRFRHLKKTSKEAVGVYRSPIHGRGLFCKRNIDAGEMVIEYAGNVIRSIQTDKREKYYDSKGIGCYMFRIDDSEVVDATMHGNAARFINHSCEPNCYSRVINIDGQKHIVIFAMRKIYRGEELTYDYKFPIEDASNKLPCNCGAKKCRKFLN

The term inhibition denotes the relative decrease from the control value, in per cent. For `Nc1ncnc2c1ncn2[C@@H]1O[C@H](CNS(=O)(=O)c2ccc3ccccc3c2)[C@@H](O)[C@H]1O` [Compound 3, N-(((2R,3S,4R,5R)-5-(6-Amino-9H-purin-9-yl)-3,4-dihydroxytetrahydrofuran-2-yl)methyl)naphthalene-2-sulfonamide], the inhibition at 10 µM was 1% on MLL1 Complex and 11% at G9a. Moreover, in series [1] (human plasma, 37° C., n = 3), the “Plasma Stability t1/2, Human” value was >24^d h. Also, in series [1] (human, plasma), the “stability in human plasma” value is recorded as “remarkably stable”.
